# Columns and labels:
# [1] = biological target: T1, Porcine ventricle myofibrils (ventricular myosin ATPase) (Sus scrofa, UniProt P79293); assay: Myofibril ATPase assay, porcine ventricle myofibrils; type: biochemical, porcine (Yucatan minipigs); details: porcine ventricle myofibrils
# T1 construct: Myofibrils from porcine cardiac muscle was isolated from the left ventricle of Yucatan minipigs; tissue Exemplar Genetics; host or cells: left ventricle of Yucatan minipigs, myofibrils prepared in house
# T1 sequence (P79293 whole entry): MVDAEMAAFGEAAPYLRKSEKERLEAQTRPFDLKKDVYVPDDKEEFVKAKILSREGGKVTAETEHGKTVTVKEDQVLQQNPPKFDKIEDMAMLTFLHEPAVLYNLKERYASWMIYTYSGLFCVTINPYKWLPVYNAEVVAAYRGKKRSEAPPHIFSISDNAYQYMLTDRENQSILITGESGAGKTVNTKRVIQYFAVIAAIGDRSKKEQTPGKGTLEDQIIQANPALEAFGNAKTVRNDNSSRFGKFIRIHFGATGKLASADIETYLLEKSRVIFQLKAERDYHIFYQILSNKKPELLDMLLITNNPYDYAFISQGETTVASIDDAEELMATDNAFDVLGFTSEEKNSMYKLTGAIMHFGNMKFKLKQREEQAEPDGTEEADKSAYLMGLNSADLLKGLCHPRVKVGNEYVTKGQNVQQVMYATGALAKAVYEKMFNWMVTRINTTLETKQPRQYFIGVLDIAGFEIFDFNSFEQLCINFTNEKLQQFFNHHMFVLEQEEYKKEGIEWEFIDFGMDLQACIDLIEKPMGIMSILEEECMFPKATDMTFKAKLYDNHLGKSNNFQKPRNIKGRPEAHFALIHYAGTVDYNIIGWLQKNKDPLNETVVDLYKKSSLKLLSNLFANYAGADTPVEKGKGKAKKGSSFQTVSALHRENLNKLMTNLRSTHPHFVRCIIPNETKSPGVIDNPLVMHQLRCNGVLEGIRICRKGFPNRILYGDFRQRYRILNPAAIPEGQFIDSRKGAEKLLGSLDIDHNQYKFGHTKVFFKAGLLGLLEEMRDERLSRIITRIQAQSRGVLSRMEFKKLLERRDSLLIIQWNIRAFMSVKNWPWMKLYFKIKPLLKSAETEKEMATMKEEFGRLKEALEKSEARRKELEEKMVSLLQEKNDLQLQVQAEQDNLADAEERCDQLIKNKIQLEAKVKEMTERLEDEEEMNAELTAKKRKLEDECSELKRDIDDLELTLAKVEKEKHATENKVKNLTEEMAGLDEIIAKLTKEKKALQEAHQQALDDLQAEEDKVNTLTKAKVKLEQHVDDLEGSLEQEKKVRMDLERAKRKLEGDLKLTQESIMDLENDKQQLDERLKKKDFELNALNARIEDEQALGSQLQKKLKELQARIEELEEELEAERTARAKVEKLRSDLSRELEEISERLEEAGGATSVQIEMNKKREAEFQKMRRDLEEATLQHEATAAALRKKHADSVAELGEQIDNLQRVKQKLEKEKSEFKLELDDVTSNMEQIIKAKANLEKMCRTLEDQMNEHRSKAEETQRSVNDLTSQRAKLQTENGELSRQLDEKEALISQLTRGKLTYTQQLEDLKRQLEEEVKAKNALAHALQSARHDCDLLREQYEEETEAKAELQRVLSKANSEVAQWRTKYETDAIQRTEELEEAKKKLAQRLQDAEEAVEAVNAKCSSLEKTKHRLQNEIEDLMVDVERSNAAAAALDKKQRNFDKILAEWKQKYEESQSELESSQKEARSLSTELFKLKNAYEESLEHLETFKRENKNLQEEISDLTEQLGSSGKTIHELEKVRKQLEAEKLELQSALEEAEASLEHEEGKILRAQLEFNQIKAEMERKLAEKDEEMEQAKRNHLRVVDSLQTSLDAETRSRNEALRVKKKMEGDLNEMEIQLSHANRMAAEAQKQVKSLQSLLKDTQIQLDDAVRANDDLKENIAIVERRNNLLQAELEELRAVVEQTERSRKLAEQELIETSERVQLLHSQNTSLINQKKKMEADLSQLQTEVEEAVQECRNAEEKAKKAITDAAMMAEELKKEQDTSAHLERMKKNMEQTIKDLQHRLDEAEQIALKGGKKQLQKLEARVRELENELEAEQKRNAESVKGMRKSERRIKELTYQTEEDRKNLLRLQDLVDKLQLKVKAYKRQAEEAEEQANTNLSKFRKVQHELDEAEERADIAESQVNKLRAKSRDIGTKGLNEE
# Summary of the method: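 Left-ventricle myofibrils from Yucatan minipigs were tested with a PK/LDH-coupled system, following NADH loss at 340 nm every 1.5-2 min for 75 min. Slopes were normalized to vehicle wells and fit to a 4-parameter logistic model; values are Y75 (25% ATPase reduction) or Y125 concentrations.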
# [2] = system: Porcine atria myofibrils (atrial myosin ATPase); assay: Myofibril ATPase assay, porcine atria myofibrils; type: biochemical; details: porcine atria myofibrils
# Summary of the method: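 Y75 (25% inhibition) or Y125 (activation) values come from 4-parameter logistic fits of vehicle-normalized rates. Rates are linear-regression slopes of NADH absorbance at 340 nm, read kinetically over 75 min, with ADP coupled to NADH oxidation via pyruvate kinase/lactate dehydrogenase.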
# [3] = system: Rabbit Psoas myofibrils (skeletal myosin ATPase); assay: Myofibril ATPase assay, rabbit psoas (skeletal) myofibrils; type: biochemical; details: rabbit psoas myofibrils
# Summary of the method: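 Values are concentrations giving 75% (Y75) or 125% (Y125) of vehicle ATPase activity, from 4-parameter logistic fits of normalized rates. Rates came from linear regression of A340 over 75 min, NADH oxidation coupled to ADP via PK-LDH. Enzyme source: skeletal myofibrils from rabbit psoas, pH 7.0 pCa buffer.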
# [4] = Y75 value (75% activity relative to no compound)
# [5] = ‡ Y125 value, not a Y75 value (125% activity relative to no compound)
SMILES,Ventricular EC25 ([1]; Y75 value),"Atrial EC25 [2, 4]",Skeletal EC25 ([3]; Y75 value),Ventricular EC25 ([1]; Y75 value (no ‡ mark)),Atrial EC25 ([2]; Y75 value (no ‡ mark)),Skeletal EC25 ([3]; Y75 value (no ‡ mark)),"Skeletal EC25 [3, 5]","Ventricular EC25 [1, 5]"
Cc1c(CC(=O)N[C@@H](C)c2ccc(F)cc2F)c(=O)[nH]c2ccc(C#N)nc12 [compound 281],5.52 µM,0.27 µM,0.34 µM,–,–,–,–,–
Cc1ncc(C#N)nc1C(C)NC(=O)Cc1c(C)c2c(C)nccc2[nH]c1=O (stereo not drawn) [compound 461],15.98 µM,94.45 µM,100.00 µM,–,–,–,–,–
C[C@H](NC(=O)Cc1cc2cc(C#N)ccc2[nH]c1=O)c1ccc(F)cc1F [compound 121],–,–,–,100.00 µM,100.00 µM,3.75 µM,–,–
Cc1c(CC(=O)N[C@H](C)c2ccc(C#N)cc2F)c(=O)[nH]c2ccc(F)c(F)c12 [compound 65],–,–,–,0.22 µM,0.23 µM,0.02 µM,–,–
Cc1c(CC(=O)N[C@@H](C)c2ccc(F)cc2F)c(=O)[nH]c2ccc(OC(F)(F)F)nc12 [compound 359],100.00 µM,0.11 µM,0.04 µM,–,–,–,–,–
"Cc1c(C(F)(F)C(=O)N[C@@H](C)c2nccc(C#N)n2)c(=O)[nH]c2ccc(F)cc12 (single isomer, unassigned) [compound 2528]",–,–,–,100.00 µM,4.45 µM,–,93.23‡ μM,–
"C[C@H](NC(=O)C(F)(F)c1cc2cc(F)ccc2[nH]c1=O)c1cc(C#N)ccn1 (single isomer, unassigned) [compound 2574]",–,–,–,100.00 µM,100.00 µM,100.00 µM,–,–
C[C@H](NC(=O)Cc1c(C2CC2)c2cnccc2[nH]c1=O)c1ccc(C#N)cn1 [compound 141],100.00 µM,100.00 µM,8.74 µM,–,–,–,–,–
"Cc1nccc2[nH]c(=O)c(CC(=O)N[C@@H](C)c3cccc(O)n3)c(C)c12 (single isomer, unassigned) [compound 298]",100.00 µM,100.00 µM,100.00 µM,–,–,–,–,–
"COc1ccc2[nH]c(=O)c(CC(=O)N[C@@H](C)c3ccc(F)cc3F)cc2c1C#N [Compound 81, (S)-2-(5-Cyano-6-methoxy-2-oxo-1,2-dihydroquinolin-3-yl)-N-(1-(2,4-difluorophenyl)ethyl) acetamide]",–,–,–,100.00 µM,100.00 µM,51.89 µM,–,–
"Cc1nccc2[nH]c(=O)c(CC(=O)N[C@H]3COc4cccnc43)c(C)c12 (single isomer, unassigned) [compound 252]",100.00 µM,100.00 µM,100.00 µM,–,–,–,–,–
"Cc1c(CC(=O)N[C@@H](C)c2ncc(C#N)cn2)c(=O)[nH]c2ccc(F)c(C3CC3)c12 (single isomer, unassigned) [compound 2060]",–,–,–,3.02 µM,0.45 µM,0.26 µM,–,–
Cc1c(CC(=O)N[C@H](CO)c2ncc(F)cc2F)c(=O)[nH]c2ccnc(C(F)(F)F)c12 [compound 263],100.00 µM,100.00 µM,100.00 µM,–,–,–,–,–
Cc1nc(C#N)ncc1[C@H](C)NC(=O)Cc1c(C)c2c(F)c(F)ccc2[nH]c1=O [compound 1132],–,–,–,0.05 µM,0.10 µM,0.02 µM,–,–
"Cc1ccc([C@@H](CO)NC(=O)Cc2c(C)c3c(C)nccc3[nH]c2=O)cc1 (single isomer, unassigned) [compound 335]",100.00 µM,100.00 µM,26.39 µM,–,–,–,–,–
"C[C@H](NC(=O)Cc1cc2c(C(F)(F)F)c(F)ccc2[nH]c1=O)c1ncc(C#N)cn1 (single isomer, unassigned) [compound 2010]",–,–,–,3.45 µM,1.25 µM,0.66 µM,–,–
"C[C@@H](NC(=O)Cc1cc2ccc(F)cc2[nH]c1=O)c1ncc(C#N)cn1 (single isomer, unassigned) [compound 2033]",–,–,–,100.00 µM,100.00 µM,24.12 µM,–,–
"C[C@H](NC(=O)C1(c2cc3cc(F)ccc3[nH]c2=O)CC1)c1cccc(C#N)n1 (single isomer, unassigned) [compound 2535]",–,–,–,–,100.00 µM,–,51.07‡ μM,85.38‡ μM
CC(=O)N1C[C@H](NC(=O)Cc2c(C)c3c(C)nccc3[nH]c2=O)c2c(F)cc(F)cc21 [compound 206],100.00 µM,100.00 µM,0.40 µM,–,–,–,–,–
Cc1c(CC(=O)N[C@H](C)c2ncc(C#N)cc2F)c(=O)[nH]c2ccc(F)c(C(F)(F)F)c12 [compound 21],–,–,–,0.13 µM,0.03 µM,0.04 µM,–,–
C[C@H](NC(=O)Cc1cc2ccccc2[nH]c1=O)c1ccc(F)cc1F [compound 137],–,–,–,3.33 µM,1.12 µM,0.19 µM,–,–
Cc1c(CC(=O)N[C@@H](CO)c2ccc(C#N)cc2F)c(=O)[nH]c2ccc(C(F)(F)F)nc12 [compound 219],7.16 µM,0.12 µM,0.14 µM,–,–,–,–,–
Cc1c(CC(=O)N[C@@H](C)c2ccc(C#N)cc2F)c(=O)[nH]c2ccc(F)c(C(F)(F)F)c12 [compound 38],–,–,–,0.06 µM,0.03 µM,0.02 µM,–,–
"Cc1c(C2(C(=O)N[C@H](C)c3ncc(C#N)cc3F)CC2)c(=O)[nH]c2ccc(F)c(C(F)(F)F)c12 (single isomer, unassigned) [compound 4801]",–,–,–,100.00 µM,0.28 µM,0.28 µM,–,–
"Cc1c(CC(=O)N[C@@H](C)c2ncc(F)cc2F)c(=O)[nH]c2ccc(O)nc12 (single isomer, unassigned) [compound 223]",61.19 µM,12.99 µM,16.17 µM,–,–,–,–,–
"Cc1ccc([C@H](C)NC(=O)Cc2c(C)c3c(C)nccc3[nH]c2=O)cc1 (single isomer, unassigned) [compound 306]",100.00 µM,11.75 µM,5.05 µM,–,–,–,–,–
"Cc1nccc2[nH]c(=O)c(CC(=O)N[C@@H](C)c3ccccn3)c(C)c12 (single isomer, unassigned) [compound 325]",100.00 µM,100.00 µM,1.57 µM,–,–,–,–,–
"Cc1cccc([C@@H](CO)NC(=O)Cc2c(C)c3c(C)nccc3[nH]c2=O)c1 (single isomer, unassigned) [compound 294]",100.00 µM,100.00 µM,100.00 µM,–,–,–,–,–
"Cc1nc(C#N)cnc1[C@H](C)NC(=O)C(F)(F)c1c(C)c2cc(F)ccc2[nH]c1=O (single isomer, unassigned) [compound 2568]",–,–,–,0.58 µM,0.57 µM,0.11 µM,–,–
Cc1c(CC(=O)N[C@@H](C)c2ccc(C#N)cc2F)c(=O)[nH]c2ccc(F)c(C3CC3)c12 [compound 70],–,–,–,100.00 µM,100.00 µM,0.03 µM,–,–

# Source: patent publication US12448369B2 (Edgewise Therapeutics, Inc., priority 2023, dated 2025)
